pIC50: −log10 of the molar value. Active and inactive are the calls of the source. The rule behind the calls is not given here. Where a SMILES comes first, the peptide text is derived from it.
How the values were obtained:
[1] = tested on: B16-F10; test: Induction of GLUT1-mediated mouse B16-F10 cell cytotoxicity assessed as cell viability at 3.125 uM incubated for 24 hrs by CCK-8 assay
[2] = tested on: B16-F10; test: Antitumor activity against mouse B16-F10 cells implanted in BALB/c mouse assessed as apoptotic cells in tumor tissue at 15 mg/kg, ip administered for 12 days by TUNEL assay; format: functional, organism-based; conditions: time 12.0 day
[3] = target: T1, Solute carrier family 2, facilitated glucose transporter member 1 (Homo sapiens) (UniProt P11166); test: Binding affinity to GLUT1 (unknown origin) assessed as binding free energy
T1 sequence (whole entry): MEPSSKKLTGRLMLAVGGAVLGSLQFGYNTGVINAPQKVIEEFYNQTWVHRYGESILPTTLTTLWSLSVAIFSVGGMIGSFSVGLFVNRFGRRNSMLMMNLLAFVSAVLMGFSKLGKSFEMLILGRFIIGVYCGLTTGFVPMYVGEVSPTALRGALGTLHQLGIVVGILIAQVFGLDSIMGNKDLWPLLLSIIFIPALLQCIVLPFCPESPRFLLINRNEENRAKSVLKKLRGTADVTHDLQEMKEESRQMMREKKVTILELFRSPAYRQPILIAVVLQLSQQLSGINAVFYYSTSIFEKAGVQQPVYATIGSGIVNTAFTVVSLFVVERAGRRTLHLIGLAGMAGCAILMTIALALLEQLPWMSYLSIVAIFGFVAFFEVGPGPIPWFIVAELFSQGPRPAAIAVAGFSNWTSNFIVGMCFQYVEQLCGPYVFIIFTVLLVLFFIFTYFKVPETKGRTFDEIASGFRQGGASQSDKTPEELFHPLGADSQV

[4] = tested on: B16-F10; test: Induction of cell membrane disruption in mouse B16-F10 cells assessed as shrunken morphology at 5 uM incubated for 24 hrs by scanning electron microscopy; format: functional, cell-based
[5] = tested on: B16-F10; test: Anti-migration activity against mouse B16-F10 cells assessed as inhibition of spheroid migration at 2.5 uM after 3 days by crystal violet staining based assay; format: functional, cell-based; conditions: time 3.0 day
[6] = tested on: B16-F10; test: Antitumor activity against mouse B16-F10 cells implanted in BALB/c mouse assessed as reduction in tumor volume at 15 mg/kg, ip administered for every 2 days; format: functional, organism-based; conditions: time 2.0 day
[7] = Stability in 10% fetal bovine serum measured after 24 hrs; format: ADME, cell-free, Bos taurus; conditions: cattle
[8] = target: T1, Solute carrier family 2, facilitated glucose transporter member 1 (Homo sapiens); test: Binding affinity to GLUT1 (unknown origin) membrane assessed as free energy
[9] = tested on: B16-F10; test: Cytotoxicity against mouse B16-F10 cells assessed as LDH release at 3.125 to 6.25 uM incubated for 24 hrs by LDH assay; format: functional, cell-based; conditions: dose 3.125-6.25 µM
[10] = tested on: B16-F10; test: Antiinvasive activity against mouse B16-F10 cells assessed as inhibition of cell migration at 0.75 to 1.5 microM incubated for 72 hrs by transwell migration assay; format: functional, cell-based; conditions: dose 0.75-1.5 µM
[11] = Toxicity in BALB/c mouse implanted in mouse B16-F10 cells assessed as pathological changes in liver at 15 mg/kg, ip administered for days by H& E staining based assay; format: organism-based; conditions: in vivo
[12] = target: T1, Solute carrier family 2, facilitated glucose transporter member 1 (Homo sapiens); test: Induction of GLUT1-mediated HEK293T cytotoxicity assessed as cell viability at 3.125 uM incubated for 24 hrs by CCK-8 assay
[13] = tested on: B16-F10; test: Cytotoxicity against mouse B16-F10 cells assessed as cell viability after 24 hrs by CCK-8 assay; format: functional, cell-based; conditions: B16-F10, 24 h
[14] = Toxicity in KM mouse implanted in mouse B16-F10 cells assessed as body weight change at 10 mg/kg, iv administered for days; format: organism-based; conditions: in vivo
[15] = tested on: B16-F10; test: Induction of cell membrane disruption in mouse B16-F10 cells assessed as membrane permeability at 5 uM incubated for 24 hrs by trypan blue staining based light microscopy; format: functional
[16] = target: T1, Solute carrier family 2, facilitated glucose transporter member 1 (Homo sapiens); test: Induction of GLUT1-mediated human HeLa cell cytotoxicity assessed as cell viability at 12.5 uM incubated for 24 hrs by CCK-8 assay
[17] = Toxicity in BALB/c mouse implanted in mouse B16-F10 cells assessed as pathological changes in spleen at 15 mg/kg, ip administered for days by H& E staining based assay; format: organism-based; conditions: in vivo
[18] = Toxicity in BALB/c mouse implanted in mouse B16-F10 cells assessed as body weight change at 15 mg/kg, ip administered for days; format: organism-based; conditions: in vivo
[19] = tested on: B16-F10; test: Antitumor activity against mouse B16-F10 cells implanted in KM mouse assessed as metastatic nodules in lungs at 10 mg/kg, iv administered for every 2 days measured after 9 days; format: functional, organism-based; conditions: time 9.0 day
[20] = tested on: B16-F10; test: Induction of cell membrane disruption in mouse B16-F10 cells incubated for 24 hrs by SYTO 9/PI staining based fluorescence microscopy; format: functional
[21] = tested on: B16-F10; test: Antimetastatic activity against mouse B16-F10 cells implanted in KM mouse assessed as reduction lung metastatic nodules at 200 microL of 10 mg/kg, iv administered once every 2 days by H and E staining method; format: functional, organism-based; conditions: time 2.0 day
[22] = target: T1, Solute carrier family 2, facilitated glucose transporter member 1 (Homo sapiens); test: Induction of GLUT1-mediated human A549 cell cytotoxicity assessed as cell viability at 12.5 uM incubated for 24 hrs by CCK-8 assay
[23] = tested on: B16-F10; test: Cytotoxicity against mouse B16-F10 cells assessed as inhibition of spheroid proliferation at 5 uM after 3 days by 3D-shperoid assay relative to control; format: functional, cell-based; conditions: time 3.0 day
[24] = species: Homo sapiens; test: Binding affinity to membrane (unknown origin) assessed as binding free energy
[25] = Toxicity in BALB/c mouse implanted in mouse B16-F10 cells assessed as pathological changes in heart at 15 mg/kg, ip administered for days by H& E staining based assay; format: organism-based; conditions: in vivo
[26] = tested on: MCF7; test: Cytotoxicity against human MCF7 cells assessed as cell viability measured after 24 hrs by CCK-8 assay; format: functional, cell-based; conditions: MCF7, 24 h
[27] = tested on: MX1; test: Cytotoxicity against human MX1 cells assessed as cell viability measured after 24 hrs by CCK-8 assay; format: functional, cell-based; conditions: MX1, 24 h
[28] = tested on: MDA-MB-231; test: Cytotoxicity against human MDA-MB-231 cells assessed as cell viability measured after 24 hrs by CCK-8 assay; format: functional, cell-based; conditions: MDA-MB-231, 24 h

## CCCCCCCCCCCC(=O)N[C@@H](CCCNC(=N)N)C(=O)NCC(=O)N[C@@H](Cc1c[nH]c2ccccc12)C(=O)N[C@@H](Cc1ccccc1)C(=O)N[C@@H](CCCNC(=N)N)C(=O)N[C@@H](C)C(=O)N[C@@H](CCSC)C(=O)N[C@@H](CCCNC(=N)N)C(=O)N[C@@H](CO)C(=O)N[C@H](C(=O)N[C@@H](C)C(=O)N[C@@H](CCCNC(=N)N)C(=O)N[C@@H](Cc1ccccc1)C(=O)N[C@H](C(=O)N[C@@H](C)C(=O)N[C@@H](CCCNC(=N)N)C(=O)N[C@@H](CCC(=O)O)C(=O)N[C@@H](CCCNC(=N)N)C(=O)N[C@@H](CC(C)C)C(=O)N[C@@H](CCCNC(=N)N)C(=O)N[C@@H](CCC(=O)O)C(=O)N[C@@H](Cc1cnc[nH]1)C(=O)N[C@@H](CC(C)C)C(N)=O)[C@@H](C)CC)[C@@H](C)CC (HELM PEPTIDE1{[CCCCCCCCCCCC(=O)[*:2]].R.G.W.F.R.A.M.R.S.I.A.R.F.I.A.R.E.R.L.R.E.H.L.[am]}$$$$V2.0)
[1]
  Activity: Active
[2]
  Activity: Active
[3]
  deltaG: -66.4 kcal/mol
[4]
  Activity: Active
[5]
  Activity: Active
[6]
  Activity: inactive
[7]
  Stability: Stable
[8]
  deltaG: -67.5 kcal/mol
[9]
  Activity: Active
[10]
  Activity: inactive
[11]
  Activity: Non-Toxic
[12]
  Activity: Active
[13]
  pIC50: 5.52
[14]
  Activity: Non-Toxic
[15]
  Activity: Active
[16]
  Activity: Active
[17]
  Activity: Non-Toxic
[18]
  Activity: Non-Toxic
[19]
  Activity: inactive
[20]
  Activity: Active
[21]
  Activity: inactive
[22]
  Activity: Active
[23]
  Activity: Active
[24]
  deltaG: -65.7 kcal/mol
[25]
  Activity: Non-Toxic

## CCCCCCCCCCCCCC(=O)N[C@@H](CCCNC(=N)N)C(=O)N[C@@H](Cc1c[nH]c2ccccc12)C(=O)N[C@@H](CCCCN)C(=O)N[C@H](C(=O)N[C@@H](Cc1ccccc1)C(=O)N[C@@H](CCCCN)C(=O)N[C@@H](CCCCN)C(=O)N[C@H](C(=O)N[C@@H](CCC(=O)O)C(=O)N[C@@H](CCCCN)C(=O)N[C@H](C(=O)NCC(=O)N[C@@H](CCC(N)=O)C(=O)N[C@@H](CC(N)=O)C(=O)N[C@H](C(=O)N[C@@H](CCCNC(=N)N)C(=O)N[C@@H](CC(=O)O)C(=O)NCC(=O)N[C@H](C(=O)N[C@H](C(=O)N[C@@H](CCCCN)C(=O)N[C@@H](C)C(=O)NCC(=O)N1CCC[C@H]1C(=O)N[C@@H](C)C(=O)N[C@H](C(=O)N[C@@H](C)C(=O)N[C@H](C(=O)N[C@H](C(=O)NCC(=O)N[C@@H](CCC(N)=O)C(=O)N[C@@H](C)C(=O)N[C@@H](C)C(=O)N[C@H](C(=O)N[C@H](C(N)=O)[C@@H](C)CC)[C@@H](C)O)C(C)C)C(C)C)C(C)C)C(C)C)[C@@H](C)CC)[C@@H](C)CC)C(C)C)[C@@H](C)CC)[C@@H](C)CC (HELM PEPTIDE1{[CCCCCCCCCCCCCC(=O)[*:2]].R.W.K.I.F.K.K.I.E.K.V.G.Q.N.I.R.D.G.I.V.K.A.G.P.A.V.A.V.V.G.Q.A.A.T.I.[am]}$$$$V2.0)
[26]
  pIC50: > 5.10
[27]
  pIC50: > 5.10
[28]
  pIC50: > 5.10

Source: ChEMBL document CHEMBL5036332, “Glucose-Lipopeptide Conjugates Reveal the Role of Glucose Modification Position in Complexation and the Potential of Malignant Melanoma Therapy” (J Med Chem, 2021)
